The record followed here is PubChem BioAssay (NCI).

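1) Cells in 96-well plates. 2) Compound, 48 h, 5 concentrations. 3) Linear interpolation between surrounding doses. 4) Unreached endpoint = highest concentration. GI50 = concentration required for 50% inhibition of growth. TGI is the concentration that stops growth completely.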

Test in all cases: NCI anticancer screen, dose series, 48 h
In experiment [1] the test system is 786-0 renal.
The subject of experiment [2] is HCT-15 colon.
In experiment [3] the test system is HL-60(TB) leukemia.
Experiment [4] relates to IGROV1 ovarian.
Experiment [5] concerns NCI-H460 lung.
For experiment [6], the system named is SF-295 CNS.
The subject of experiment [7] is U251 CNS.
The test system of experiment [8] is UACC-62 melanoma.
Experiment [9] relates to SN12C renal.

As to `COc1cc2nncc(Sc3cnnc4ccccc34)c2cc1OC`, the TGI in experiment [1] is 96.9 µM; in [2], 72.2 µM; in [3], 70.5 µM; in experiment [4], > 100 µM; in [5] it was 50.4 µM; in experiment [6] it was 91.6 µM. The TGI was 67.5 µM in [7] and > 100 µM in experiment [8].
On to `Clc1ccc([O][In]([O]c2ccc(Cl)cn2)[O]c2ccc(Cl)cn2)nc1`, for which the GI50 in [1] is > 100 µM; in experiment [2], > 100 µM; in [4], > 100 µM; in [5], > 100 µM; in [6], 25.2 µM; in experiment [9], > 100 µM. Also, the GI50 in [7] and in experiment [8] was > 100 µM in each case. Moreover, the TGI is > 100 µM in experiment [1]; > 100 µM in experiment [2]; > 100 µM in experiment [4]; > 100 µM in [5]; 47.5 µM in experiment [6]; > 100 µM in experiment [9]. Besides, the TGI in experiment [7] and in experiment [8] was > 100 µM throughout.
As for `CC(C)N(C(C)C)[PH+]1O[PH+](N(C(C)C)C(C)C)O[PH+](N(C(C)C)C(C)C)O[PH+](N(C(C)C)C(C)C)O[PH+](N(C(C)C)C(C)C)O1.[C-]#[O+].[C-]#[O+].[C-]#[O+].[C-]#[O+].[C-]#[O+].[C-]#[O+].[C-]#[O+].[Cr].[Cr]` (stereo unspecified), the GI50 in [1], in experiment [2], in experiment [3], in experiment [4], in experiment [5] and in [6] was > 100 µM throughout. For the same compound, the GI50 in [9], in [7] and in experiment [8] was > 100 µM each time. Besides, the TGI in [1], in [2], in experiment [3], in [4], in [5] and in [6] was > 100 µM in each case. For the same compound, the TGI in [9], in experiment [7] and in experiment [8] was > 100 µM each time.
`Cc1cc(C)c2c(c1)CN1CN2Cc2cc(C)cc(C)c21`: the TGI is 34.7 µM in [1]; 48.8 µM in experiment [3]; > 100 µM in experiment [4]; 29.6 µM in experiment [5]; 37.4 µM in [6]; 32.6 µM in experiment [9]. The TGI in [7] was found to be 32.3 µM; in [8] it was 35.9 µM.
On to `CCC1(Br)C(=O)NC(=O)N(C2CC(O)C(CO)O2)C1N=[N+]=[N-]` (stereo unspecified), for which the TGI in experiment [1], in experiment [3], in [4], in experiment [5], in experiment [6] and in experiment [9] was > 100 µM each time. Moreover, the TGI in experiment [7] and in experiment [8] was > 100 µM each time.
Consider `COc1ccc([C@H]2CC(=O)N3CCCC3N2)cc1` (stereo partly specified), for which the TGI in experiment [1], in [2], in experiment [3], in experiment [4], in [5] and in experiment [6] was > 100 µM throughout. The TGI in experiment [9], in experiment [7] and in [8] was > 100 µM throughout.
Regarding `Fc1cccc(Cl)c1C1SCc2nc3ccccc3n21` (stereo unspecified), the TGI in experiment [1] is > 100 µM; in experiment [2] it was > 100 µM; in experiment [3] it was 33.2 µM; in experiment [4], > 100 µM; in experiment [5], > 100 µM; in [6], 95.2 µM. In addition, the TGI in experiment [9] is > 100 µM; in experiment [7], 89.7 µM; in experiment [8], 37.5 µM.
In the case of `COC(=O)c1nc(NN)[nH]c(=O)c1CCCCCc1c(C(=O)OC)[nH]c(NN)cc1=O`, the TGI in experiment [1], in experiment [2], in [3], in experiment [4], in experiment [5] and in experiment [6] was > 100 µM in each case. The TGI in experiment [9], in experiment [7] and in [8] was > 100 µM throughout.
For `O=C1[C@@H](c2ccc(Cl)cc2)[C@H]2CC=C[C@H]2N1O`, the TGI in experiment [1], in experiment [2], in experiment [3], in [4], in [6] and in experiment [9] was > 100 µM each time. Moreover, in experiment [8], the TGI was > 100 µM.
Consider `Cc1cc(Cl)ccc1NC(=O)C(=O)Cc1nc2ccc(C(=O)c3ccccc3)cc2[nH]c1=O`, for which the TGI in experiment [1], in [2], in [3], in experiment [4], in [5] and in experiment [6] was > 100 µM throughout. Moreover, the TGI in [9] and in [8] was > 100 µM in each case.
Consider `C=C(C)C1CC2C(C)=C(OC(C)=O)C1n1c(=O)c3cc4ccccc4cc3c(=O)n12` (stereo unspecified), for which the TGI in [1] is > 100 µM; in [2] it was > 100 µM; in [3] it was > 36 µM; in experiment [4], > 100 µM; in experiment [5], > 100 µM; in [6] it was > 100 µM. The TGI in experiment [9], in experiment [7] and in experiment [8] was > 100 µM throughout.
On to `CC[O-].CC[O-].O=C1C(=C([O-])c2ccccc2)C(=O)c2ccccc21.O=C1C(=C([O-])c2ccccc2)C(=O)c2ccccc21.[Ti+4]`, for which the GI50 was > 100 µM in experiment [1]; 52.9 µM in experiment [2]; > 100 µM in experiment [3]; > 100 µM in experiment [4]; 42.9 µM in [5]; 98.4 µM in experiment [6]. In addition, the GI50 was 26.6 µM in experiment [9] and > 100 µM in [8]. In addition, the TGI in experiment [1], in [2], in experiment [3], in experiment [4], in experiment [5] and in experiment [6] was > 100 µM in each case. Further, the TGI is 99 µM in experiment [9] and > 100 µM in experiment [8].
In the case of `COc1ccc(C2C(Cl)C(=O)N2n2cnc3ccccc3c2=O)cc1OC` (stereo unspecified), the TGI in experiment [1], in experiment [2], in [3], in [4], in experiment [5] and in experiment [6] was > 100 µM throughout. Also, the TGI in experiment [9], in [7] and in [8] was > 100 µM throughout.
On to `Cc1cc(O)c2c(c1)C(O)(c1ccc3c(c1O)C(=O)c1c(O)cc(C)cc1C3(O)C1OC(CO)C(O)C(O)C1O)c1cccc(O)c1C2=O` (stereo unspecified), for which the TGI is 29.2 µM in experiment [1]; 26.1 µM in experiment [2]; 46.8 µM in experiment [3]; 28.1 µM in experiment [4]; 27.9 µM in experiment [5]; 24.9 µM in experiment [6]. Moreover, the TGI in experiment [7] is 23.8 µM; in [8], 25.3 µM.
With `O=[N+]([O-])c1ccc(N=Nc2c(O)[nH]c3ccc([N+](=O)[O-])cc23)cc1`, the TGI in experiment [1] is 17 µM; in experiment [2], > 100 µM; in experiment [4] it was > 100 µM; in experiment [5], 26.4 µM; in [6], 27.5 µM; in [7], 41.7 µM. This compound yielded a TGI in experiment [8] of 36.5 µM.
As for `O=C(C(=O)c1ccc(Cc2ccc(C(=O)C(=O)c3ccccc3)cc2)cc1)c1ccccc1`, the TGI in experiment [1], in experiment [2], in experiment [3], in experiment [4], in [5] and in experiment [6] was > 100 µM each time. Also, the TGI in [9], in [7] and in experiment [8] was > 100 µM each time.
Regarding `CSc1nc2c(c(O)c(C)c(=O)n2C2OC(COC(C)=O)C(OC(C)=O)C(OC(C)=O)C2OC(C)=O)c(=O)n1C` (stereo unspecified), the TGI in [1], in [2], in [3], in experiment [4], in experiment [5] and in experiment [6] was > 100 µM each time. For the same compound, the TGI in [9], in experiment [7] and in experiment [8] was > 100 µM throughout.
`C/C(=N/N(C=O)C[n+]1ccccc1)C(CN(CC(C)C)CC(C)C)C(=O)Nc1ccc(C)cc1C` (stereo unspecified): the TGI in experiment [1], in experiment [3], in experiment [4], in [5], in [6] and in [9] was > 100 µM in each case. Also, the TGI in experiment [8] is > 100 µM.
For `O=c1nc(-c2ccccc2)c2c3c(cccn13)CCC2`, the TGI in experiment [1], in experiment [2], in experiment [3], in [4], in [5] and in [6] was > 100 µM in each case. Further, the TGI in [9], in experiment [7] and in experiment [8] was > 100 µM each time.
On to `C[n+]1cc2c3c(ccc2c2ccc4cc5c(cc4c21)OCO5)OCO3`, for which the GI50 is 1.02 µM in experiment [1]; 0.631 µM in experiment [2]; 0.445 µM in experiment [3]; 1.18 µM in experiment [4]; 1.29 µM in experiment [5]; 1.22 µM in experiment [6]. The GI50 was 0.331 µM in experiment [7] and 0.744 µM in [8]. The TGI in experiment [1] was 2.26 µM; in experiment [2] it was 2.29 µM; in experiment [3], 2.7 µM; in experiment [4], 2.48 µM; in [5], 3.7 µM; in [6] it was 2.53 µM. For the same compound, the TGI in experiment [7] was found to be 1.28 µM; in experiment [8] it was 2.08 µM.
As to `O=C(c1ccccc1)c1c(CC(O)c2cccnc2)n(C(=O)c2ccccc2)c2ccccc12` (stereo unspecified), the TGI stood at 99.4 µM in [1]; 60.3 µM in [2]; 49 µM in experiment [3]; 55.5 µM in [4]; 36.4 µM in experiment [5]; 35.6 µM in experiment [6]. The TGI was 30.7 µM in [7] and 34.3 µM in experiment [8].
As for `O=C1c2ccccc2N2OC3(N4CCCC4)CCCC3C12c1ccccc1` (stereo unspecified), the TGI in [1], in experiment [2], in experiment [3], in experiment [4], in experiment [6] and in experiment [9] was > 100 µM each time. For the same compound, the TGI in [7] and in experiment [8] was > 100 µM each time.
In the case of `Cc1cc([N+](=O)[O-])c(C)c2c1[nH]c1ccc(/C(CCC3CCCC3)=N\N)cc12`, the TGI in [1] is 28 µM; in experiment [2], 29.2 µM; in experiment [5] it was > 100 µM; in experiment [6] it was 38.1 µM; in experiment [9] it was 29.7 µM.
Regarding `COc1ccc(C(C2=C(C)C(=O)c3ccccc3C2=O)c2ccc(C(C)C)cc(=O)c2O)cc1` (stereo unspecified), the TGI in experiment [1] is 6.26 µM; in [2], 32.2 µM; in experiment [3], 10.6 µM; in experiment [4], 12.6 µM; in experiment [5], 12.6 µM; in experiment [6], 23 µM. Further, the TGI in experiment [9] stood at 8.4 µM; in experiment [7] it was 10.9 µM.
Regarding `N=C(N)SCc1cn2ccccc2n1`, the TGI in [1], in experiment [2], in experiment [3], in experiment [5], in [6] and in [9] was > 100 µM in each case. The TGI in experiment [7] was > 100 µM.
Turning to `CC(C)N(C(=O)C12C3C4C1C1C2C3C41C(O)C(C)(C)C)C(C)C` (stereo unspecified), the TGI in experiment [1], in experiment [2], in experiment [3], in experiment [4], in [6] and in [9] was > 50 µM each time. Moreover, the TGI in experiment [7] and in experiment [8] was > 50 µM each time.
As for `CC(C)c1cccc(C(C)C)c1NC(=O)C(=O)C(C(=O)c1ccccc1-c1ccccc1)C1OC(=O)c2ccccc21` (stereo unspecified), the TGI in experiment [1] stood at 36.8 µM; in experiment [2], 44.5 µM; in [4], 74.7 µM; in experiment [5], 36.5 µM; in experiment [6], 37.6 µM; in experiment [9] it was 49.9 µM. Also, the TGI was 25.4 µM in experiment [7] and 44.1 µM in experiment [8].
